ChEMBL document CHEMBL1144031, “[4-(Phenoxy)pyridin-3-yl]methylamines: a new class of selective noradrenaline reuptake inhibitors” (Bioorg Med Chem Lett, 2008)
Blank lines part the entries; values can stand above or below the compound they belong to.

What was measured:
[1] = target: Sodium-dependent serotonin transporter (Homo sapiens, UniProt P31645); test: Inhibition of [3H]Citalopram uptake in human 5HTT transfected HEK293 cells; format: cell-based
[2] = target: Sodium-dependent dopamine transporter (Homo sapiens, UniProt Q01959); test: Inhibition of [3H]WIN-35428 uptake in human DAT transfected HEK293 cells; format: cell-based
Chain of Sodium-dependent dopamine transporter (Q01959 whole entry): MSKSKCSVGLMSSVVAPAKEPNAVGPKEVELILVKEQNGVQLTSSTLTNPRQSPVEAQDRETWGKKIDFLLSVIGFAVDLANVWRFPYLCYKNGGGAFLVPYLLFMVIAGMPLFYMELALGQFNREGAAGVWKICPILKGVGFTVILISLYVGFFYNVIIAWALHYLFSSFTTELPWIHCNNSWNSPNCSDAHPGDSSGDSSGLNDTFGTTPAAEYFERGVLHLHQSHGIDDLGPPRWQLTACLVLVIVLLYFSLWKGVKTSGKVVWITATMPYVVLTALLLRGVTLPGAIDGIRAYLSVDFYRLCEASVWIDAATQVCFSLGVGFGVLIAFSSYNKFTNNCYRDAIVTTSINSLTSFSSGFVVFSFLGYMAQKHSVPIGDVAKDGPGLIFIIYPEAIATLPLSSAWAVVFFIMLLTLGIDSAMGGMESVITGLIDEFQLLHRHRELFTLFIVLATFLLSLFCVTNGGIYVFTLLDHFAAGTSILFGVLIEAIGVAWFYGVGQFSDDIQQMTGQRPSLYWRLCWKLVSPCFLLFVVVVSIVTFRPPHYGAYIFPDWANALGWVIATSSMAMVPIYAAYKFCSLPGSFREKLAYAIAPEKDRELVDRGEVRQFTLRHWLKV

[3] = target: Sodium-dependent noradrenaline transporter (Homo sapiens, UniProt P23975)
Chain of Sodium-dependent noradrenaline transporter (P23975 whole entry): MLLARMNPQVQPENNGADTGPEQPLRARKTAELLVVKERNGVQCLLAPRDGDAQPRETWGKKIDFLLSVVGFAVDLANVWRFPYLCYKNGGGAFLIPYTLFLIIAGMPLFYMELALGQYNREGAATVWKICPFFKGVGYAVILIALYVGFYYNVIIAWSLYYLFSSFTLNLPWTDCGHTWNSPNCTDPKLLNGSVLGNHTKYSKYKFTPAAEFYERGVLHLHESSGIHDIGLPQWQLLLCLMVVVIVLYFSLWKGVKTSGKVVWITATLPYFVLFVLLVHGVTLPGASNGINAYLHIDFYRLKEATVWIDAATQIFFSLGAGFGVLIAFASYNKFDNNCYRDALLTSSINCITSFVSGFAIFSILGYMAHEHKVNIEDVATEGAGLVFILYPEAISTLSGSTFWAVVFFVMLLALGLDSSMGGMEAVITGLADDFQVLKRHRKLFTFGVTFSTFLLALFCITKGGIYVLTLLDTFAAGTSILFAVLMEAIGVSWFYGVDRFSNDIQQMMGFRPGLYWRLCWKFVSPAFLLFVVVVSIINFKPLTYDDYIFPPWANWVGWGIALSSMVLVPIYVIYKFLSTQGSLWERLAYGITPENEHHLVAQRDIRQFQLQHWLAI
Description: Inhibition of [3H]Nisoxetine uptake in human noradrenaline transporter transfected HEK293 cells

P-gp [4] = test: Apparent permeability from apical to basolateral side of the dog MDCK cells expressing P-gp transporter; format: ADME, cell-based, Canis lupus familiaris; details: MDCK-MDR1
P-gp [5] = test: Apparent permeability from basolateral to apical side of the dog MDCK cells expressing Pgp transporter; format: ADME, cell-based, Canis lupus familiaris; details: MDCK-MDR1
[6] = Lipophilicity, logD at pH 7.4; format: physicochemical; details: buffer
[7] = Metabolic stability assessed as intrinsic clearance in human liver microsome; format: ADME; details: liver microsomes
[8] = target: Voltage-gated inwardly rectifying potassium channel KCNH2 (Homo sapiens, UniProt Q12809); test: Displacement of [3H]dofetilide from human ERG channel
Chain of Voltage-gated inwardly rectifying potassium channel KCNH2 (Q12809 whole entry): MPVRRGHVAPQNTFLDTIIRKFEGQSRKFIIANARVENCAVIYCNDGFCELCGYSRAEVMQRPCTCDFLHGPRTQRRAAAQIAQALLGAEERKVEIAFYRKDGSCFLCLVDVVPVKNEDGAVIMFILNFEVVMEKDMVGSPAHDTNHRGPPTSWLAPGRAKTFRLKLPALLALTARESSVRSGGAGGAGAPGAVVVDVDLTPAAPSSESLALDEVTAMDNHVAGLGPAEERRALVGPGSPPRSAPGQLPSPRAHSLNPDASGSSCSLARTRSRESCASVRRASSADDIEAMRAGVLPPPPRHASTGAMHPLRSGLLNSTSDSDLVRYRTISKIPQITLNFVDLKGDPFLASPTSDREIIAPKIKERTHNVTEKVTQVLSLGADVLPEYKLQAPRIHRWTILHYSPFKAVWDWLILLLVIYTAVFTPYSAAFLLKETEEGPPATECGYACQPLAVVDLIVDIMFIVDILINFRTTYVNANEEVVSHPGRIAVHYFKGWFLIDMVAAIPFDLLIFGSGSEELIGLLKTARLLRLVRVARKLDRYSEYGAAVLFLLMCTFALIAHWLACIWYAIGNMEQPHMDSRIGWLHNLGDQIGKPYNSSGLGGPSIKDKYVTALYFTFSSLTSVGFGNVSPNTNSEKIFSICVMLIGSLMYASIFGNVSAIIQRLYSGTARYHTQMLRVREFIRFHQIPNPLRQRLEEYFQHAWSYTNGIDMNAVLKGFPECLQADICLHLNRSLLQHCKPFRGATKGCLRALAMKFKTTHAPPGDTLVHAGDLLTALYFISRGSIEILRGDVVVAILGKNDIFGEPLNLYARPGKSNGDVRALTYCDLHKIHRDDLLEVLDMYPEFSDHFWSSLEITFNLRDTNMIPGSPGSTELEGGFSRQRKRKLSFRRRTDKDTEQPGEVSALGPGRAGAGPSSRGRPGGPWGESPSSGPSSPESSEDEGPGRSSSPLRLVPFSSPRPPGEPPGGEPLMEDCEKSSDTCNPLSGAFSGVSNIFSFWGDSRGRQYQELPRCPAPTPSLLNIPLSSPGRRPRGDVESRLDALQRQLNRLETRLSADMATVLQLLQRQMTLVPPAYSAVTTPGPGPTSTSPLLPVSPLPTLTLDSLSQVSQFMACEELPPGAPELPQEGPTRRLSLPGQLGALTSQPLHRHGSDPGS

[9] = Dissociation constant, pKa of the compound; format: physicochemical
Cytochrome P450 2D6 = Cytochrome P450 2D6 (Homo sapiens, UniProt P10635); test: Inhibition of CYP2D6; format: ADME
Chain of Cytochrome P450 2D6 (P10635 whole entry): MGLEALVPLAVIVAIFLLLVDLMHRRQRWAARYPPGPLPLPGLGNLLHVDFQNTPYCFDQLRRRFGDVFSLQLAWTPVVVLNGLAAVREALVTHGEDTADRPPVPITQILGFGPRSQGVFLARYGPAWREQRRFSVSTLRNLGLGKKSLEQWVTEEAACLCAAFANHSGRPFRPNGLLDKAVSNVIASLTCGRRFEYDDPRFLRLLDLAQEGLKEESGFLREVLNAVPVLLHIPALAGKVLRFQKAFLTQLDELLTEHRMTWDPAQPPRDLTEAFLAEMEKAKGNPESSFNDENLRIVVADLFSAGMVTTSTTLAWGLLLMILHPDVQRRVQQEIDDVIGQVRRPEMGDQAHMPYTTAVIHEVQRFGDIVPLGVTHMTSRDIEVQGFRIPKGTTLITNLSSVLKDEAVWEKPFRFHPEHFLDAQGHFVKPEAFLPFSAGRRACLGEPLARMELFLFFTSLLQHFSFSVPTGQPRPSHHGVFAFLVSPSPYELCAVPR

Cytochrome P450 3A4 = Cytochrome P450 3A4 (Homo sapiens, UniProt P08684); test: Inhibition of CYP3A4; format: ADME
Chain of Cytochrome P450 3A4 (P08684 whole entry): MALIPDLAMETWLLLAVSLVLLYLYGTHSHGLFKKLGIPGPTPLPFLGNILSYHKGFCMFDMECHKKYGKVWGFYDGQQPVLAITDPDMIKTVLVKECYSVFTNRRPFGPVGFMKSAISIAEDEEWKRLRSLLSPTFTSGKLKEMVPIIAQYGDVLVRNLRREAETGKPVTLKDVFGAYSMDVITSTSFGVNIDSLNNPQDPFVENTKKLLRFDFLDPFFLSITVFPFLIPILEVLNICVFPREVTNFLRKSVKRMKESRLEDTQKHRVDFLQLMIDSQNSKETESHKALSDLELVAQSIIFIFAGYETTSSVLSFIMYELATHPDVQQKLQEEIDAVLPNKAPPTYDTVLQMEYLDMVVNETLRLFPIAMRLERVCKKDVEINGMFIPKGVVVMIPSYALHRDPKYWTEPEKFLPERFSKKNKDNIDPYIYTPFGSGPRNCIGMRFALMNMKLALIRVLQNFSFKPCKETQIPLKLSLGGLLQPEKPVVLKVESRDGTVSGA

[10] = Apparent permeability from basolateral to apical side of the human CaCO2 membrane; format: ADME, cell-based; details: Caco-2
[11] = target: T1, 5-hydroxytryptamine receptor 2C (Homo sapiens) (UniProt P28335); test: Inhibition of 5HT2C receptor at 10 uM
T1 sequence (whole entry): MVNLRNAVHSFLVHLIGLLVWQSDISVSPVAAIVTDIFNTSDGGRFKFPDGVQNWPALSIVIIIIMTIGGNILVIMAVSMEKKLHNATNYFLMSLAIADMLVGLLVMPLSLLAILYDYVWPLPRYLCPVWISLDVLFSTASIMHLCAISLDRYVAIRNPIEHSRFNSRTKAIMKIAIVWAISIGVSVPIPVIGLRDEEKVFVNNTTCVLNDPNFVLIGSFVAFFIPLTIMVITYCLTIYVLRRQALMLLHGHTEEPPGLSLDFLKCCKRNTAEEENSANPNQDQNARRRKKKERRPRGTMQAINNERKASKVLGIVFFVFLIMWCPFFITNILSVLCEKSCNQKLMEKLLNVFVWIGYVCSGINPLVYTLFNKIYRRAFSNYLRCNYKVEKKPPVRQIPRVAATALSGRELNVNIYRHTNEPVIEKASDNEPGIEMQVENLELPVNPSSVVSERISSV

Rattus norvegicus = test: Increase in noradrenaline level in interstitial fluid of conscious rat prefrontal cortex at 0.3 mg/kg, sc relative to baseline; format: functional; details: route subcutaneous
Cytochrome P450 1A2 = target: T2, Cytochrome P450 1A2 (Homo sapiens, UniProt P05177); test: Inhibition of CYP1A2; format: ADME
T2 sequence (P05177 whole entry): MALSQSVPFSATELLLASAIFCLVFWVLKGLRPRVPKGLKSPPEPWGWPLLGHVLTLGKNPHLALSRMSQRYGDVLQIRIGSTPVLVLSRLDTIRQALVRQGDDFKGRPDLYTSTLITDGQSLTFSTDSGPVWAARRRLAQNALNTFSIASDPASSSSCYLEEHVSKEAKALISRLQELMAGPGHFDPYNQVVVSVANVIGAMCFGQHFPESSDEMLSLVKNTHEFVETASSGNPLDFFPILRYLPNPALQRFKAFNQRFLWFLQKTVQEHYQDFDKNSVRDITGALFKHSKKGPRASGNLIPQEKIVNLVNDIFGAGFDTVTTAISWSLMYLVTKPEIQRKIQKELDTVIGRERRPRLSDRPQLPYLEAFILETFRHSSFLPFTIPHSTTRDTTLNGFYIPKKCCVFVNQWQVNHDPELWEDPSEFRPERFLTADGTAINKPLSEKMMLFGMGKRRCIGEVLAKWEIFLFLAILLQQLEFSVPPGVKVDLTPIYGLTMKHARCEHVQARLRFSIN

[12] = Displacement of [3H]noradrenaline from rat noradrenaline transporter expressed in HEK293 cells; format: cell-based
[13] = target: Kappa-type opioid receptor (Homo sapiens) (UniProt P41145); test: Inhibition of kappa opioid receptor at 10 uM
Chain of Kappa-type opioid receptor (Homo sapiens) (P41145 whole entry): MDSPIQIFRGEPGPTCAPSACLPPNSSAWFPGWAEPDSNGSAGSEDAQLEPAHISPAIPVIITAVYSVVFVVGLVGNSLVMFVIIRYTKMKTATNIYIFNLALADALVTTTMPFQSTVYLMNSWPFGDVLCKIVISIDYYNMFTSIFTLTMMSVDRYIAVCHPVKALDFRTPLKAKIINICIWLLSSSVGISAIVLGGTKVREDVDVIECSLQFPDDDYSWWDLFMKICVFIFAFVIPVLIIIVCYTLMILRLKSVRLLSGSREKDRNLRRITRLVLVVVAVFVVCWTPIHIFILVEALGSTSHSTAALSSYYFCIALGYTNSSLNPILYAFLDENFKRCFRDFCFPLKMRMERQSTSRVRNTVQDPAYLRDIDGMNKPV

[14] = target: Mu-type opioid receptor (Homo sapiens) (UniProt P35372); test: Inhibition of mu opioid receptor at 10 uM
Chain of Mu-type opioid receptor (Homo sapiens) (P35372 whole entry): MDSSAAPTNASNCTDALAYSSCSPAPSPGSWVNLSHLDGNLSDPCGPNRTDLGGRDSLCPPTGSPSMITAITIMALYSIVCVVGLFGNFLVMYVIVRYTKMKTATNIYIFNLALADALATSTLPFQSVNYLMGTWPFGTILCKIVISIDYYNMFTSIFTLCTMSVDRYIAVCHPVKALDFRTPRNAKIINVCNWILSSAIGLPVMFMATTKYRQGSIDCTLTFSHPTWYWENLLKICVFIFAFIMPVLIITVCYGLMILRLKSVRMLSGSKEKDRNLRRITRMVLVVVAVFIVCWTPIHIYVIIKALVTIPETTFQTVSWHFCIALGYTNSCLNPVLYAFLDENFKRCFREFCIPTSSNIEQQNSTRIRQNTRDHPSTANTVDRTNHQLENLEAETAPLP

[15] = Binding affinity to calcium channel L-type at diltiazem site
[16] = Apparent permeability from apical to basolateral side of the human CaCO2 membrane; format: ADME, cell-based; details: Caco-2
Hepatocyte = test: Metabolic stability assessed as intrinsic clearance in human hepatocytes; format: ADME, cell-based, Liver
[17] = Binding affinity to sodium channel site 2
[18] = Half life in human liver microsome; format: ADME; details: liver microsomes
[19] = Lipophilicity, logP of the compound; format: physicochemical; details: octanol/water

Chain of Sodium-dependent serotonin transporter (P31645 whole entry): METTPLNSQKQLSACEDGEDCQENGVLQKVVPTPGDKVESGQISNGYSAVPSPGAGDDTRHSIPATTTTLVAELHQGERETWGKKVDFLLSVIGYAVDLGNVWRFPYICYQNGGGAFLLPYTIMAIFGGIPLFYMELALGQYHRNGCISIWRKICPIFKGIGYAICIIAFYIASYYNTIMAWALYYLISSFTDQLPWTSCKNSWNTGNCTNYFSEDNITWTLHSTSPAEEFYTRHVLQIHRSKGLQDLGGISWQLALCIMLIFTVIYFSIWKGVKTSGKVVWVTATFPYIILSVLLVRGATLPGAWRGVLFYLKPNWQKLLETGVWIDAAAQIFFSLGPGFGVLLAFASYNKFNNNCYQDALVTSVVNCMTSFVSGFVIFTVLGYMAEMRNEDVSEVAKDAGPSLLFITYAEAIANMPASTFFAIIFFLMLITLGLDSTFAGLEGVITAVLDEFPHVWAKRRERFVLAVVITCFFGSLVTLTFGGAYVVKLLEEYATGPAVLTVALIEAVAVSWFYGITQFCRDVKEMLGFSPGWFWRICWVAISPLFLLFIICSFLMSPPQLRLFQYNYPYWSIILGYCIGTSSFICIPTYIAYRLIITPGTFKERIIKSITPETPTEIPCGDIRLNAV

Compound: CCc1ccccc1Oc1cc(C)ncc1CNC
Ki [1]: 440 nM | Ki [2]: 2280 nM | Ki [3]: 366 nM

Compound: CCc1cc(Cl)ccc1Oc1cc(C)ncc1CNC
Ki [1]: 18 nM | Ki [2]: 4350 nM | Ki [3]: 74 nM

Compound: Cc1cc(Oc2ccccc2Oc2ccccc2)c(CN(C)C)cn1
Papp A→B (P-gp [4]): 41 ×10⁻⁶ cm/s | Ki [1]: 4060 nM | Papp B→A (P-gp [5]): 36 ×10⁻⁶ cm/s | Ki [2]: 2640 nM | logD [6]: 2.4 | pKa [9]: 4.4 | microsomal CLint [7]: 29 µL/min/mg | Ki [3]: 10 nM | IC50 (Cytochrome P450 2D6): 610 nM

Compound: CCCc1ccccc1Oc1cc(C)ncc1CNC
Ki [1]: 821 nM | Ki [2]: 1980 nM | Ki [3]: 438 nM

Compound: CNCc1cnc(C)cc1Oc1ccccc1OC
Ki [1]: 265 nM | Ki [2]: 4800 nM | Ki [3]: 921 nM

Compound: CNCc1cnc(C)cc1Oc1ccccc1C(C)C
Ki [1]: 1980 nM | Ki [2]: 2130 nM | Ki [3]: 82 nM

Compound: CCc1cc(Cl)ccc1Oc1cc(C)ncc1CN(C)C
Ki [1]: 13 nM | Ki [3]: 22 nM

Compound: CNCc1cnc(C)cc1Oc1ccccc1Cl
Ki [1]: 88 nM | Ki [2]: 834 nM | Ki [3]: 255 nM

Compound: CNCc1cnc(C)cc1Oc1ccccc1SC
Ki [1]: 133 nM | Ki [2]: 1750 nM | Ki [3]: 232 nM

Compound: CNCc1cnc(C)cc1Oc1ccccc1Oc1ccccc1
Papp A→B (P-gp [4]): 25 ×10⁻⁶ cm/s | Ki [1]: 823 nM | Papp B→A (P-gp [5]): 41 ×10⁻⁶ cm/s | IC50 (Cytochrome P450 3A4): > 3000 nM | Papp B→A [10]: 19 ×10⁻⁶ cm/s | inhibition [11]: > 80% | Activity (Rattus norvegicus): 400% | Ki [8]: 5800 nM | IC50 (Cytochrome P450 1A2): > 3000 nM | Ki [2]: 1910 nM | IC50 [12]: 2.5 nM | inhibition [13]: > 80% | inhibition [14]: > 80% | Ki [15]: 1200 nM | Papp A→B [16]: 11 ×10⁻⁶ cm/s | logD [6]: 1.6 | pKa [9]: 4.4 | CL (Hepatocyte): 8 µL/min/mg | Ki [17]: 3400 nM | microsomal CLint [7]: < 7 µL/min/mg | Ki [3]: 10 nM | IC50 (Cytochrome P450 2D6): 3400 nM | half-life [18]: > 2 h | logP [19]: 4.4

Compound: CCOc1ccccc1Oc1cc(C)ncc1CNC
Ki [1]: 218 nM | Ki [2]: 2390 nM | Ki [3]: 461 nM

The next lines start with results.

Ki [1]: 136 nM | Ki [2]: 1520 nM | Ki [3]: 951 nM
Compound: CNCc1cnc(C)cc1Oc1ccccc1C

Papp A→B (P-gp [4]): 38 ×10⁻⁶ cm/s | Ki [1]: 1470 nM | Papp B→A (P-gp [5]): 39 ×10⁻⁶ cm/s | Ki [2]: 2880 nM | logD [6]: 2.5 | microsomal CLint [7]: 17 µL/min/mg | Ki [3]: 13 nM
Compound: Cc1cc(Oc2ccccc2C(C)C)c(CN(C)C)cn1

Ki [1]: 279 nM | Ki [2]: 2660 nM | logD [6]: 2.1 | microsomal CLint [7]: < 7 µL/min/mg | Ki [3]: 27 nM
Compound: CCc1ccccc1Oc1cc(C)ncc1CN(C)C
IC50 [8]: > 20000 nM

Ki [1]: 4750 nM | Ki [2]: 2150 nM
Compound: CCOc1ccccc1Oc1cc(C)ncc1CN(C)C

Ki [1]: 1420 nM | Ki [2]: 4060 nM | Ki [3]: 296 nM
Compound: COc1ccccc1Oc1cc(C)ncc1CN(C)C

Ki [1]: 2820 nM | Ki [2]: 2250 nM | Ki [3]: 159 nM
Compound: CCCc1ccccc1Oc1cc(C)ncc1CN(C)C

Ki [1]: 242 nM | Ki [2]: 1160 nM | Ki [3]: 131 nM
Compound: Cc1cc(Oc2ccccc2Cl)c(CN(C)C)cn1

Ki [1]: 235 nM | Ki [2]: 1410 nM | Ki [3]: 194 nM
Compound: Cc1cc(Oc2ccccc2C)c(CN(C)C)cn1

Ki [1]: 384 nM | Ki [2]: 1930 nM | Ki [3]: 58 nM
Compound: CSc1ccccc1Oc1cc(C)ncc1CN(C)C
